In the assay the test system is naïve C57/BL6 mice. Briefly: Tumor naïve C57/BL6 mice treated for two weeks, lung immune microenvironment. It counts as in vivo. The method, then: To determine iTEAD effect on lung immune microenvironment at steady state, naïve C57/BL6 mice were treated with iTEAD. […] In the absence of cancer cells in these naïve mice, no change in CD8+ T-cells was observed between treatment groups. […] On the cancer cell front, TEAD inhibition had no effect on proliferation yet reduced migration and 3D spheroid collective invasion of breast cancer cells in vitro.
To investigate how TEAD inhibition influences the immune microenvironment in the normal lung, C57BL/6 mice were treated with 30 mg/kg of VT107 or vehicle control via oral gavage for 2 weeks. Lung, spleen and blood tissues were harvested for immune cell analysis and RNA-sequencing (FIG. 9, Panel G). […] RNA-seq data was analyzed by Cibersortx (Chen et al., 2018) to deconvolute the abundance of immune cell types in the lung tissue using single-cell RNA-seq datasets.
Due to the shifts in immune signaling observed in the lung tissue upon TEAD inhibition (FIG. 9), immune cell populations were first analyzed by flow cytometry in the lungs and spleens of tumor naïve mice. Consistent with the Cibersort analysis of RNA-seq data, there was a decrease in the monocytes population and an increase in the tissue-resident alveolar macrophages (AM) (FIG. 10, Panel A). […] Next, it was sought to determine the specific effects of iTEAD treatment on lung resident versus bone-marrow derived macrophages, as the dynamics of these cell populations are crucial for the establishment of the metastatic niche (Ries et al., 2014; Qian et al., 2011). Macrophages were retrieved from the lungs by isolating F4/80+ cells, a specific marker for murine macrophages, by FACS (fluorescence-activated cell sorting) as well as bone marrow-derived macrophages from the femurs of naïve C57BL/6 mice that were then differentiated in vitro using macrophage colony stimulating factor (M-CSF). Macrophages were treated with 1 μM of VT107 for 24 hours before the conditioned media was collected and analyzed on a cytokine array. […] There was no change in the level of the other cytokines detected (FIG. 10, Panel B).
Single cell suspensions were washed 2× with PBS. Cells were then stained with Zombie NIR Fixable Viability Kit (Biolegend, 423106) or Zombie Aqua Fixable Viability Kit (Biolegend, 423102) for 20 minutes at room temperature, to identify dead cells. Next, cells were washed with FACS buffer (1×PBS+2% FBS) and incubated with conjugated antibodies binding to cell surface proteins, at 4 °C for 30 minutes. A combination of the following antibodies were used: anti-CD45-Spark Blue 550 (Biolegend, 103166), anti-CD3-PercP/Cy5.5 (Biolegend, 100217), anti-CD4-Pacific Blue (Biolegend, 116007), anti-CD8-BV785 (Biolegend, 100750), anti-CD25-BV650 (Biolegend, 102038), anti-CD45-AF700 (Biolegend, 103128), anti-CD45R (B220) (Biolegend, 563103), anti-SiglecF-APC (Miltenyi Biotec, 130-102-241), anti-CD11b-PE/Dazzle (Biolegend, 108745), anti-CD11c-FITC (Biolegend, 117306), anti-F480-PE/Cy7 (Biolegend, 123114), anti-Ly6G-BV785 (Biolegend, 127645), anti-Ly6C-BV570 (Biolegend, 128030), anti-CD206-AF700 (Biolegend, 141734), and anti-CD86-AF488 (Biolegend, 105018). Cells were fixed and permeabilized using the BD Cytofix/Cytoperm Fixation/Permeabilization Kit (BD Biosciences, #554714) prior to incubation with anti-Foxp3-AF647 (Biolegend, 126407), anti-Gata3-PE (Biolegend, 653803), anti-RORy t-BV421 (Biolegend, 562894), and anti-T-bet-BV711 (BD Biosciences, 4B10). After staining, cells were washed 2× and subjected to flow cytometry analysis using the BD FACSymphony Δ3 flow cytometer analyzer. Results were analyzed using FCS Express 7 Research (De Novo Software).
The total RNA from tissue or cell lines was extracted using RNeasy Mini Kit (Qiagen, #74104) according to the manufacturer's instructions. Total RNA integrity was assessed with the Agilent 2100 Bioanalyzer. The library preparation and next-generation sequencing (NGS) were performed at Novogene Corporation Inc. (Sacramento, CA, USA). […]

Where [1] appears, read: 30 mg/kg oral gavage 2 weeks, flow cytometry.

“Also recorded” adds a separate entry of the source.

VT107: under setting [1], the “alveolar macrophages in the lungs” value is recorded as “increase” and the “infiltrating monocytes/macrophages in the lungs” value is reported as “decrease”. Also, the “alveolar macrophages in the lungs” value (30 mg/kg oral gavage 2 weeks, flow cytometry, listed as iTEAD) is recorded as “robust increase; also recorded: shift”. In addition, where the note is “Cibersortx of RNA-seq”, the leukocytes fraction result was “slight increase”, the “monocyte fraction in lung tissue” value is “reduced” and the “myeloid cells' fraction including tissue resident macrophages” value is “expanded”. In addition, where the note is “Ingenuity pathway analysis”, the “IL12 signaling pathway in lung” value is “increase”; the “inflammation (cytokine storm, S100 family, wound healing and fibrosis signaling pathways) in lung” value is reported as “overall reduction”. Also, under “RNA-sequencing”, the “lung gene expression, downregulated compared to upregulated genes” value is “significantly higher number of downregulated genes” and the spleen gene expression result was “minimal changes”. Under “flow cytometry”, the “CD3+ cells in tumor naïve lungs” value was “increase” and the “CD4+ or CD8+ T-cell populations in tumor naïve lungs” value was “not specifically”. Moreover, where the note is “flow cytometry, analyzed tissues”, the “total macrophages, dendritic cells, eosinophils or neutrophils” value is on record as “No significant change”. Further, the “alveolar macrophages and infiltrating monocytes/macrophages in spleen or blood” value (flow cytometry, listed as iTEAD) was “no change”. Under “naïve mice, between treatment groups”, the “CD8+ T-cells” value is on record as “no change”.
